One series concerns BJ1. Briefly: MTT assay in BJ1 cells. In kind it is cell-based. As for the experimental part: (§1) A total of 2×10^3 […] cells were seeded in the 96-well cell culture plate, and incubated with DMEM (GIBCO®)/glucose mixture and Medium 199 (GIBCO®)/10% FBS/1 mM sodium pyruvate (GIBCO®)/4 mM L-glutamine (GIBCO®) mixture at a ratio of 4:1 at 37° C. for 24 hours. […] After 48 hours of drug treatment, the cultured medium were collected for performing the analysis of SEAP activity. The cells were washed with 1×PBS once immediately, and the MTT assay was performed to compare the compounds with the relative toxicity or the influence to the proliferation and activity. Mitochondria is the place for cellular respiration, and there are many reductive reactions catalyzed by dehydrogenases. MTT is a water-soluble yellow compound, and the […] will be formed after reduction. This crystal can be dissolved in the organic solvent, and has high absorbance at the wavelength of 570 nm. The higher cellular activity or more cell numbers, the more generated crystal violets. Therefore, the cellular activity and cell number can be obtained by the MTT assay. MTT solution was prepared by dissolving MTT powder in PBS solution to achieve 5 mg/ml, filtrated and stored at 4° C. Lysis buffer contained 20% (w/v) of SDS in 50% of N,N-dimethylformamide (DMF, Riedel-deHaën). After the cells were incubated in the 96-well culture plate, the original medium was discarded, 100 μl of the fresh serum-free medium per well and 25 μl of MTT solution per well were added in respectively, and the cells were further incubated in the CO2 incubator at 37° C. for 4 hours. Then, 100 μl of lysis buffer per well was added in and incubated overnight in the CO2 incubator at 37° C. The absorbance at 570 nm was determined by the ELISA reader.

In the next series the test system is H1299. Briefly: MTT assay in H1299 cells. In kind it is cell-based. As for the experimental part:
as §1, with “H1299 is a non-small cell lung cancer cell line with telomerase activity. The cell extract of H1299 cell lines can be used for selecting the telomerase activity inhibitors in vitro and the telomerase activity-inhibited substances in vivo. H1299 cell line was incubated with RPMI 1640 medium supplemented with 10% of fetal bovine serum (FBS). A total” for “A total”, “ELISA reader. The selection of telomerase inhibitors of the anthraquinone compounds provided in the present invention was performed by the […]-driven SEAP system. SEAP is the communication gene in this drug selection model. The SEAP inhibition was shown as follows. […] Subsequently, the linear slope of absorbance to the measuring time was calculated, and the variance of absorbance at 405 nm per minute was represented and compared with the SEAP-producing result of drug-untreated H1299 cells. In addition, the influence of the cell-treated drug solution to the cellular proliferation and the drug toxicity to the cells were considered, and the cellular growth was evaluated by the MTT assay. The drug-treated cells were analyzed by the SEAP assay and the data analysis of MTT assay at the same time. Both results were compared so as to delete the influence of cell number or the activity to SEAP, and the dose-dependent phenomenon could be anticipated in the range of drug concentration designed by the laboratory. […] Since the chemically-synthetic drugs have colors thereon, the SEAP value of drug-treatment without cells was also determined to be the background value which was deducted while treating with the drugs. The candidate drug for inhibiting telomerase on the hTERT gene expression level was evaluated and anticipated.” for “ELISA reader.”

Turning to `O=C1c2ccc(NC(=O)C3CCCC3)cc2C(=O)c2cc(NC(=O)C3CCCC3)ccc21` [Compound 33, 2,7-Bis(cyclopentanecarbonamido)anthraquinone], the viability in the series on BJ1 (1 µM) amounted to 77 ± 1%; with BJ1 (10 µM) it was 68 ± 1%; in the series on BJ1 (100 µM), 58 ± 1%; in the series on H1299 (1 µM) it was 91 ± 12%; with H1299 (10 µM), 77 ± 6%; in the series with H1299 (100 µM) it was 42 ± 12%.
